Measured values reported in US20250084056A1, “SUBSTITUTED OXOISOINDOLINYL PIPERIDINE-2,6-DIONE COMPOUNDS” (BRISTOL-MYERS SQUIBB COMPANY, priority 2023, published 2025).

Tests used:
Type in all cases: cell-based
[1] = tested on: Phospho-Rb (Ser807/811); assay: Phospho-Retinoblastoma (pRB) Cellular Assay; conditions: Homo sapiens, OVCAR-3, NIH OVCAR3 cells, 24 hours; for IC50: concentration giving 50% response; for Emax: maximum response, reference compound at 10 μM = 100%, read-out: pRB Ymax
Method in brief: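 Phospho-Rb (Ser807/811) kit read-out on EnVision after lysis (≥4 h, room temperature, dark) of OVCAR3 cells exposed to compound dilutions for 24 h. IC50 and maximum response Ymax are relative to a 10 μM reference compound defining 100%.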

[2] = molecular target: GSPT1 (Homo sapiens, UniProt P15170+Q96SW2); assay: GSPT1 Cellular Degradation Assay (DF15-GSPT1-ePL); parameters: expressed in transfected cells; conditions: DF15-GSPT1-ePL cells, 20 hours
Method in brief: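 DC50 and Dmax were derived from chemiluminescence, with 75% response set by the reference compound at […]. Readout was ePL enzyme-fragment complementation in a DF15 line expressing chimeric GSPT1. Cells were exposed to compound for 20 h at 37 °C in RPMI 1640 with 10% FBS, cooled 30 min, then lysed with substrate for 60 min.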

[3] = molecular target: Cyclin E1 (Homo sapiens, UniProt P24864+Q96SW2); assay: Cyclin E1 Cellular Degradation Assay (MSD); parameters: endogenous in cells; host or cells: OVCAR3; conditions: for DC50 / Dmax: Cyclin E1 cellular degradation; for Dmax: maximum degradation; for Ratio of GSPT1 DC50/Cyclin E1 DC50: selectivity for degradation of Cyclin E1 over GSPT1
Method in brief: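 Cyclin E1 remaining after 24 h compound exposure of OVCAR3 cells was quantified in lysates by electrochemiluminescent MSD sandwich assay. DC50 (50% response concentration) and Dmax (maximum response) were calculated, with 110% response set by a reference compound at […].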

Sequence of GSPT1 (P15170 whole entry, the tested form may be a part): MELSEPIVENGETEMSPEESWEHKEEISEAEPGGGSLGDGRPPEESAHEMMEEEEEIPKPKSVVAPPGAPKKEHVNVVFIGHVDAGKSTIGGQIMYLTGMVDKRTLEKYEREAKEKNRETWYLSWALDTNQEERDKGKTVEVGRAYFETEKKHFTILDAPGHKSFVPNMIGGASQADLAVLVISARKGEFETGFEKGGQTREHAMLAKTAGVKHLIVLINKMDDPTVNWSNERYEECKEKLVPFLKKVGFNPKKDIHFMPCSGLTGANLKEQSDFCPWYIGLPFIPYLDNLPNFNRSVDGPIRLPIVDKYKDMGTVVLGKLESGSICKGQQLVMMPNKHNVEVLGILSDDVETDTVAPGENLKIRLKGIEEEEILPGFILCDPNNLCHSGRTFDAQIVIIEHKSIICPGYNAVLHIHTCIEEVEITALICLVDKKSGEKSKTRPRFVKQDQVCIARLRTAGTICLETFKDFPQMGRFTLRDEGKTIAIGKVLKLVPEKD
Sequence of GSPT1 (Q96SW2 whole entry, the tested form may be a part): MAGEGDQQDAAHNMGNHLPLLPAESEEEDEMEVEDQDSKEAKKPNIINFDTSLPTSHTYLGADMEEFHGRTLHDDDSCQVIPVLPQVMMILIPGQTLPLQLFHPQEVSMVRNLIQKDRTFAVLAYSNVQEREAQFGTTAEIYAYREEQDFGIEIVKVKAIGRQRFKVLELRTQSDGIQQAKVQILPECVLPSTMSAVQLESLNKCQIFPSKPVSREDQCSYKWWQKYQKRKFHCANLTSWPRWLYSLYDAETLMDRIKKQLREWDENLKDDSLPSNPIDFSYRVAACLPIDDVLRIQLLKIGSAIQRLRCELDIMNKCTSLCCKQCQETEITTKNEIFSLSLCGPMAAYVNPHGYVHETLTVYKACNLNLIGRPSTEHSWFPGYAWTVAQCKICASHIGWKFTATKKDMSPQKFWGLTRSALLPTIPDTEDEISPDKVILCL
Sequence of GSPT1 (Q16531 whole entry partner, the tested form may be a part): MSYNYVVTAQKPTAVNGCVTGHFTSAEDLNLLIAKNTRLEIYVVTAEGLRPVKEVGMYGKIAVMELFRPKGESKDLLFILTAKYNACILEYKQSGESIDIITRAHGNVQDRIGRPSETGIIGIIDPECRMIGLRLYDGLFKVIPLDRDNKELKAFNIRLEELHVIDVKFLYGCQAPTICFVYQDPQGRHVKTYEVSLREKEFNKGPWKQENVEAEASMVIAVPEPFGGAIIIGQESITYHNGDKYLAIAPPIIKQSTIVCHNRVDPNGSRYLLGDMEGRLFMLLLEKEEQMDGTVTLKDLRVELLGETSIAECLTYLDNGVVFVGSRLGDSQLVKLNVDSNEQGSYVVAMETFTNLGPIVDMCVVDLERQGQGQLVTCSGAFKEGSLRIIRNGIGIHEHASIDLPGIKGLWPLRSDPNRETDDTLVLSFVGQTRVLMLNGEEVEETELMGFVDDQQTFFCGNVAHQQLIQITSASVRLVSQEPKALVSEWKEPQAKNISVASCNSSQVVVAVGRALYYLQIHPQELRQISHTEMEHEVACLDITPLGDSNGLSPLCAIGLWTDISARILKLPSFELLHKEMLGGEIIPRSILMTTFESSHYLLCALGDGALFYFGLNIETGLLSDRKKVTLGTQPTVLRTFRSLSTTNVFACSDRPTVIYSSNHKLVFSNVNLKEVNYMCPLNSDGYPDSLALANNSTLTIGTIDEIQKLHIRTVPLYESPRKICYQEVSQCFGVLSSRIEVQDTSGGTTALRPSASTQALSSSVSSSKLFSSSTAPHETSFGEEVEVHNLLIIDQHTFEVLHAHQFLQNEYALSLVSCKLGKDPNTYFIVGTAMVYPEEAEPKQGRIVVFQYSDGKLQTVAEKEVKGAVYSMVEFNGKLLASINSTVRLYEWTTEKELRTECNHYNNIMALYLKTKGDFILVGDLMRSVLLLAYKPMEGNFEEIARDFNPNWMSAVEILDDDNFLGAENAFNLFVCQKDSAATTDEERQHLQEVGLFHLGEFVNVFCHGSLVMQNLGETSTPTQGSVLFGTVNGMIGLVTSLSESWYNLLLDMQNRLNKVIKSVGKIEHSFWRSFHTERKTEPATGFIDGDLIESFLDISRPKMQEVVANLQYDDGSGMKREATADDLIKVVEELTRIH
Sequence of Cyclin E1 (P24864 whole entry): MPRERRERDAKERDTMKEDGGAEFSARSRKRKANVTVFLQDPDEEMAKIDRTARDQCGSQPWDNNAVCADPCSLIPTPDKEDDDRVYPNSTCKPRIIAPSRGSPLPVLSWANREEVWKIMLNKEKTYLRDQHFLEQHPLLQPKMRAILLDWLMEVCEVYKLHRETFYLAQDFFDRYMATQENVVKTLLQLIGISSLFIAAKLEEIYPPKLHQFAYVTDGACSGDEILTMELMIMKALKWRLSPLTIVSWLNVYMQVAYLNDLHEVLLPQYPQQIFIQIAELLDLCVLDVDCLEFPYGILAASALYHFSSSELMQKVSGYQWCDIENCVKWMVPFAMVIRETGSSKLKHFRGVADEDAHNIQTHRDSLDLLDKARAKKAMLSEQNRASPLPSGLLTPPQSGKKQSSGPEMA
Sequence of Cyclin E1 (Q96SW2 whole entry): as the sequence (Q96SW2 whole entry, the tested form may be a part) above
Sequence of Cyclin E1 (Q16531 whole entry partner): as the sequence (Q16531 whole entry partner, the tested form may be a part) above

| SMILES | IC50 [1] [nM] | DC50 [2] [nM] | Dmax [2] [%] | DC50 [3] [nM] | Dmax [3] [%] | Ratio of GSPT1 DC50/Cyclin E1 DC50 [3] | Emax [1] [%] |
| --- | --- | --- | --- | --- | --- | --- | --- |
| CCOc1c(COC(=O)Nc2ccc(Oc3ccccc3)cc2)ccc2c1C(=O)N(C1CCC(=O)NC1=O)C2 (stereo not drawn) [Example 52, [2-(2,6-dioxopiperidin-3-yl)-4-ethoxy-3-oxo-2,3-dihydro-1H-isoindol-5-yl]methyl N-(4-phenoxyphenyl)carbamate] | 81 | > 14000 | 13 | 134 | 107 | >105 | 111 |
| CCOc1c(COC(=O)Nc2ccc(Oc3ccc(F)c(F)c3)cc2)ccc2c1C(=O)N(C1CCC(=O)NC1=O)C2 (stereo not drawn) [Example 53, [2-(2,6-dioxopiperidin-3-yl)-4-ethoxy-3-oxo-2,3-dihydro-1H-isoindol-5-yl]methyl N-[4-(3,4-difluorophenoxy)phenyl]carbamate] | 86 | > 14000 | 37 | 176 | 109 | >80 | 99 |
| CCOc1c(COC(=O)Nc2ccc(Oc3cccc(Cl)c3)cc2)ccc2c1C(=O)N(C1CCC(=O)NC1=O)C2 (stereo not drawn) [Example 54, [2-(2,6-dioxopiperidin-3-yl)-4-ethoxy-3-oxo-2,3-dihydro-1H-isoindol-5-yl]methyl N-[4-(3-chlorophenoxy)phenyl]carbamate] | 624 | > 14000 | 22 | 58 | 116 | >241 | 102 |
| CC(C)Oc1c(COC(=O)Nc2ccc(Oc3ccccc3)cc2)ccc2c1C(=O)N(C1CCC(=O)NC1=O)C2 (stereo not drawn) [Example 57, [2-(2,6-dioxopiperidin-3-yl)-3-oxo-4-(propan-2-yloxy)-2,3-dihydro-1H-isoindol-5-yl]methyl N-(4-phenoxyphenyl)carbamate] | 212 | > 14000 | 36 | 128 | 102 | >109 | 114 |
| CC(C)Oc1c(COC(=O)Nc2ccc(Oc3cccc(Cl)c3)cc2)ccc2c1C(=O)N(C1CCC(=O)NC1=O)C2 (stereo not drawn) [Example 58, [2-(2,6-dioxopiperidin-3-yl)-3-oxo-4-(propan-2-yloxy)-2,3-dihydro-1H-isoindol-5-yl]methyl N-[4-(3-chlorophenoxy)phenyl]carbamate] | 298 | > 14000 | 48 | 139 | 104 | >100 | 109 |
| O=C1CCC(N2Cc3ccc(COC(=O)Nc4ccc(Oc5ccccc5)cc4)c(OC(F)F)c3C2=O)C(=O)N1 (stereo not drawn) [Example 60, [4-(difluoromethoxy)-2-(2,6-dioxopiperidin-3-yl)-3-oxo-2,3-dihydro-1H-isoindol-5-yl]methyl N-(4-phenoxyphenyl)carbamate] | 503 | > 14000 | 19 | 184 | 104 | >76 | 109 |
| O=C1CCC(N2Cc3ccc(COC(=O)Nc4ccc(Oc5ccc(F)c(F)c5)cc4)c(OC(F)F)c3C2=O)C(=O)N1 (stereo not drawn) [Example 61, [4-(difluoromethoxy)-2-(2,6-dioxopiperidin-3-yl)-3-oxo-2,3-dihydro-1H-isoindol-5-yl]methyl N-[4-(3,4-difluorophenoxy)phenyl]carbamate] | 412 | > 14000 | 22 | 157 | 104 | >89 | 107 |
| O=C1CCC(N2Cc3ccc(COC(=O)Nc4ccc(Oc5ccccc5)cc4)c(Oc4ccccc4)c3C2=O)C(=O)N1 (stereo not drawn) [Example 62, [2-(2,6-dioxopiperidin-3-yl)-3-oxo-4-phenoxy-2,3-dihydro-1H-isoindol-5-yl]methyl N-(4-phenoxyphenyl)carbamate] | 676 | > 14000 | 33 | 98 | 102 | >143 | 94 |

Now from value to molecule, other results behind:

| IC50 [1] [nM] | DC50 [2] [nM] | Dmax [2] [%] | DC50 [3] [nM] | Dmax [3] [%] | Ratio of GSPT1 DC50/Cyclin E1 DC50 [3] | SMILES | Emax [1] [%] |
| --- | --- | --- | --- | --- | --- | --- | --- |
| 112 | > 14000 | 38 | 129 | 112 | >108 | COc1c(COC(=O)Nc2ccc(Oc3cc(F)c(F)cc3F)cc2C)ccc2c1C(=O)N(C1CCC(=O)NC1=O)C2 (stereo not drawn) [Example 45, [2-(2,6-dioxopiperidin-3-yl)-4-methoxy-3-oxo-2,3-dihydro-1H-isoindol-5-yl]methyl N-[2-methyl-4-(2,4,5-trifluorophenoxy)phenyl]carbamate] | 116 |
| 376 | > 14000 | 42 | 357 | 105 | >39 | COc1c(COC(=O)Nc2ccc(Oc3ccc(F)c(F)c3)cc2Cl)ccc2c1C(=O)N(C1CCC(=O)NC1=O)C2 (stereo not drawn) [Example 46, [2-(2,6-dioxopiperidin-3-yl)-4-methoxy-3-oxo-2,3-dihydro-1H-isoindol-5-yl]methyl N-[2-chloro-4-(3,4-difluorophenoxy)phenyl]carbamate] | 102 |
| 361 | > 14000 | 20 | 320 | 101 | >44 | COc1cc(Oc2ccc(F)c(F)c2)ccc1NC(=O)OCc1ccc2c(c1OC)C(=O)N(C1CCC(=O)NC1=O)C2 (stereo not drawn) [Example 47, [2-(2,6-dioxopiperidin-3-yl)-4-methoxy-3-oxo-2,3-dihydro-1H-isoindol-5-yl]methyl N-[4-(3,4-difluorophenoxy)-2-methoxyphenyl]carbamate] | 107 |
| 69 | > 14000 | 46 | 139 | 111 | >101 | COc1cc(Oc2cccc(F)c2)ccc1NC(=O)OCc1ccc2c(c1OC)C(=O)N(C1CCC(=O)NC1=O)C2 (stereo not drawn) [Example 48, [2-(2,6-dioxopiperidin-3-yl)-4-methoxy-3-oxo-2,3-dihydro-1H-isoindol-5-yl]methyl N-[4-(3-fluorophenoxy)-2-methoxyphenyl]carbamate] | 108 |
| 171 | > 14000 | 24 | 77 | 106 | >181 | COc1cc(Oc2ccc(F)cc2F)ccc1NC(=O)OCc1ccc2c(c1OC)C(=O)N(C1CCC(=O)NC1=O)C2 (stereo not drawn) [Example 49, [2-(2,6-dioxopiperidin-3-yl)-4-methoxy-3-oxo-2,3-dihydro-1H-isoindol-5-yl]methyl N-[4-(2,4-difluorophenoxy)-2-methoxyphenyl]carbamate] | 116 |
| 2080 | > 14000 | 25 | 463 | 77 | >30 | COc1cc(Oc2ccc(F)cc2OC)ccc1NC(=O)OCc1ccc2c(c1OC)C(=O)N(C1CCC(=O)NC1=O)C2 (stereo not drawn) [Example 50, [2-(2,6-dioxopiperidin-3-yl)-4-methoxy-3-oxo-2,3-dihydro-1H-isoindol-5-yl]methyl N-[4-(4-fluoro-2-methoxyphenoxy)-2-methoxyphenyl]carbamate] | 77 |
| 188 | > 14000 | 16 | 363 | 106 | >39 | COc1c(COC(=O)Nc2ccc(Oc3ccc(F)cc3)cc2C)ccc2c1C(=O)N(C1CCC(=O)NC1=O)C2 (stereo not drawn) [Example 51, [2-(2,6-dioxopiperidin-3-yl)-4-methoxy-3-oxo-2,3-dihydro-1H-isoindol-5-yl]methyl N-[4-(4-fluorophenoxy)-2-methylphenyl]carbamate] | 109 |
| 185 | > 14000 | 21 | 141 | 108 | >99 | CCOc1c(COC(=O)Nc2ccc(Oc3cccc(F)c3)cc2)ccc2c1C(=O)N(C1CCC(=O)NC1=O)C2 (stereo not drawn) [Example 55, [2-(2,6-dioxopiperidin-3-yl)-4-ethoxy-3-oxo-2,3-dihydro-1H-isoindol-5-yl]methyl N-[4-(3-fluorophenoxy)phenyl]carbamate] | 114 |
| 113 | > 14000 | 19 | 159 | 106 | >88 | CC(C)Oc1c(COC(=O)Nc2ccc(Oc3ccc(F)c(F)c3)cc2)ccc2c1C(=O)N(C1CCC(=O)NC1=O)C2 (stereo not drawn) [Example 56, [2-(2,6-dioxopiperidin-3-yl)-3-oxo-4-(propan-2-yloxy)-2,3-dihydro-1H-isoindol-5-yl]methyl N-[4-(3,4-difluorophenoxy)phenyl]carbamate] | 127 |
| 175 | > 14000 | 48 | 131 | 104 | >107 | CC(C)Oc1c(COC(=O)Nc2ccc(Oc3ccc(F)cc3)cc2)ccc2c1C(=O)N(C1CCC(=O)NC1=O)C2 (stereo not drawn) [Example 59, [2-(2,6-dioxopiperidin-3-yl)-3-oxo-4-(propan-2-yloxy)-2,3-dihydro-1H-isoindol-5-yl]methyl N-[4-(4-fluorophenoxy)phenyl]carbamate] | 113 |
